Measurements reported in EP0471221B1, “Herbicidal compositions” (IDEMITSU KOSAN COMPANY LIMITED, priority 1990, dated 1992).

Experiments:
Galium aparine L. = experiment: Test on post-emergence treatment (greenhouse pots, foliage spray); format: in vivo; details: after 20 days
From the text: (§1) By uniformly blending 97 parts of clay (trademark: JIKURAITO, manufactured by JIKURAITO KOGYO) as the carrier, 1.5 parts of alkylaryl sulfonate (trademark: NEOPELEX, manufactured by Kao Atlas Co., Ltd.) as the surfactant, 1.5 parts of nonionic and anionic surfactant (trademark: Solpol 800A, manufactured by Toho Chemical Industry Co., Ltd.) and grinding into a powder, a carrier for wettable powders was obtained.
(§2) By uniformly blending 90 parts of this carrier for wettable powders and 10 parts of the triazine derivative shown in Table 1 (Compounds A-1 through A-7) or 10 parts of the thiocarbamate type herbicide shown in Table 2 (Compounds B) and grinding into a powder, wettable powders were obtained.
(§3) Furthermore, the carrier for wettable powders containing the triazine derivative obtained above was blended with the carrier for wettable powders containing the thiocarbamate type herbicide in definite amounts (ratios as active ingredients), uniformly kneaded and ground into powders to give wettable powders.
(§4) Wagner's pots of 1/2000 ares were filled with soil from upland fields and planted with weed seeds of Alopecurus myosuroides, Galium aparine L., Veronica hederifolia and Viola arvensis and crop seeds of wheat, barley and oat. The seeds were then covered with soil and cultivated in a greenhouse. An aqueous suspension of a definite amount of the herbicide obtained in Formulation Example 6 was uniformly sprayed onto the foliage of 1.5 to 2.5 leaf stage of these weeds and 3 leaf stage of the crops at a spray volume corresponding to 100 liters/10 ares. Then, cultivation was performed in the greenhouse. After 20 days, crop injury and the herbicidal effect on the weeds were evaluated according to the criterion described below.
(§5) The herbicidal rate described above was determined according to the following equation by measuring the raw weight of weed on the ground in the treated group and the raw weight of weed on the ground in the untreated group. [formula]
(§6) Some data were extracted from the results shown in Table 3 and the synergistic effect of the triazine derivative and the thiocarbamate type herbicide was examined on Galium aparine L. and Viola arvensis according to the following method. [formula] Q a : found data (%) of herbicidal rate when treated at a dosage corresponding to a g/10 ares using the triazine derivative alone as active ingredient Q b : found data (%) of herbicidal rate when treated at a dosage corresponding to b g/10 ares using the thiocarbamate type herbicide alone as active ingredient Q E : expected value [Limpel, L.E., P.H. Schuldt and D. Lamont, Proc. NEWCC, 16, 48-53 (1962)] Herein, when the found data (herbicidal rate) of the herbicidal obtained by mixing the triazine derivative and the thiocarbamate type herbicide is larger than Q E, it can be said that the herbicidal activity is synergistic.

Viola arvensis = experiment: as above; format: in vivo; details: after 20 days
From the text: as §1, §2, §3, §4, §5, §6

[1] = triazine derivative alone, 10 g/10a
[2] = triazine derivative alone, 5 g/10a
[3] = thiocarbamate type herbicide alone, 100 g/10a

| Compound | Percent control of Galium aparine L.(%) (Galium aparine L.; [1]) | Percent control of Viola arvensis(%) (Viola arvensis; [1]) | Percent control of Galium aparine L.(%) (Galium aparine L.; [2]) | Percent control of Viola arvensis(%) (Viola arvensis; [2]) | further results |
| --- | --- | --- | --- | --- | --- |
| CC(Nc1nc(N)nc(C(C)(C)F)n1)c1cc2ccccc2o1 (stereo not drawn) [A₁, 2-amino-4-[1-(benzofuran-2'-yl)ethylamino]-6-(α-fluoro,α-methylethyl)-s-triazine] | 38% | 54% |  |  |  |
| CC(F)c1nc(N)nc(NC(C)c2cc3ccccc3o2)n1 (stereo not drawn) [A₂, 2-amino-4-[1-(benzofuran-2'-yl)ethylamino]-6-(α-fluoroethyl)-s-triazine] |  |  | 37% | 68% |  |
| CC(Nc1nc(N)nc(C(C)(C)F)n1)c1cc2ccccc2s1 (stereo not drawn) [A₃, 2-amino-4-[1-(benzothiophen-2'-yl)ethylamino]-6-(α-fluoro,α-methylethyl)-s-triazine] | 56% | 64% |  |  |  |
| Cc1cccc(OCC(C)Nc2nc(N)nc(C(C)(C)F)n2)c1 (stereo not drawn) [A₄, 2-amino-4-(α-fluoro,α-methylethyl)-6-[2-(3'-methylphenoxy)-1-methylethylamino]-s-triazine] | 62% | 74% |  |  |  |
| CC(COc1cccc(F)c1)Nc1nc(N)nc(C(C)(C)F)n1 (stereo not drawn) [A₅, 2-amino-4-(α-fluoro,α-methylethyl)-6-[2-(3'fluorophenoxy)-1-methylethylamino]-s-triazine] |  |  | 38% | 72% |  |
| Cc1cc(C)cc(OCC(C)Nc2nc(N)nc(C(C)(C)Cl)n2)c1 (stereo not drawn) [A₆, 2-amino-4-(α-chloro,α-methylethyl)-6-[2-(3',5'-dimethylphenoxy)-1-methylethylamino]-s-triazine] | 64% | 78% |  |  |  |
| Cc1cc(C)cc(OCC(C)Nc2nc(N)nc(C(C)(C)F)n2)c1 (stereo not drawn) [A₇, 2-amino-4-(α-fluoro,α-methylethyl)-6-[2-(3',5'-dimethylphenoxy)-1-methylethylamino]-s-triazine] |  |  | 40% | 63% |  |
| CCCN(CCC)C(=O)SCc1ccccc1 [B, S-benzyldipropyl thiocarbamate, reference compound] |  |  |  |  | Percent control of Galium aparine L.(%) (Galium aparine L.; [3]): 36%; Percent control of Viola arvensis(%) (Viola arvensis; [3]): 19% |
